From US20060247251A1, “2-Cyanopyrrolopyrimidines and pharmaceutical uses thereof” (priority 2003, published 2006) come the findings set out here.

This assay has as its target recombinant human cathepsin S (Homo sapiens, UniProt P25774). Nature of the assay: in vitro cathepsin S assay. Format: biochemical. To be noted: substrate Z-Leu-Leu-4-methylcoumaryl-7-amide, pH 7.0, ambient temperature, read-out: IC50 for the inhibition of human cathepsin S. On the procedure:
The in vitro assay is carried out in clear, flat-bottomed, 96-well microtiter plates (Greiner GmbH, Germany) at ambient temperature using recombinant human cathepsin S. Inhibition of human cathepsin S is assayed at a constant enzyme and various substrate concentrations (substrate is Z-Leu-Leu-4-methylcoumaryl-7-amide (Bachem (Switzerland)) in 100 parts 0.2M sodium phosphate, pH 7.0, containing 2 mM EDTA, 2 parts 1% Triton X-100, 10 parts 20 mM dithlothreitol (DTT) and 58 parts distilled water. The assay is started by adding the enzyme solution (13 times higher concentration of final concentration of recombinant human Cathepsin S) to the reaction mixture containing various concentrations of the corresponding substrate and the compound. Substrate concentrations between 3.4 and 17 μM are used. The recombinant human Cathepsin S is used at a final concentration of 0.04 nM. Test compounds are used at concentrations between 0.4 and 2 times the determined IC50 of the compound at the enzyme. The relative fluorescence is continuously measured for 30 minutes and the initial velocity is obtained from each progress curve. […]

Chain of recombinant human cathepsin S (P25774 115-331): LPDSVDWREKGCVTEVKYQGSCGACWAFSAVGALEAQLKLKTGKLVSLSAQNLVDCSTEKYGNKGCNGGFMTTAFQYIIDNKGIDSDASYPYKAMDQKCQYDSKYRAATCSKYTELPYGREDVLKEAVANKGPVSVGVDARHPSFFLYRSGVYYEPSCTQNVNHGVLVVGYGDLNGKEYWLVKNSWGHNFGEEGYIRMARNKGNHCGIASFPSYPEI

As for `CCCNC(=O)c1ccc(OCc2cc3cnc(C#N)nc3n2CCC2CCCCC2)c(Cl)c1` [Example 54], the IC50 was determined as 32 nM.

On to `N#Cc1ncc2cc(Cc3ccc(F)c(F)c3)n(CCc3ccc(Cl)cc3)c2n1` [Example 169], for which the IC50 was found to be 30 nM. In the case of `CC(C)(C)CCn1c(Cc2ccc(CO)cc2)cc2cnc(C#N)nc21` [Example 175] it was 5.1 nM; in that of `N#Cc1ncc2cc(Cc3ccc(N4CCCC4=O)cc3)n(CCC3CCCCC3)c2n1` [Example 179, 7-(2-Cyclohexyl-ethyl)-6-[4-(2-oxo-pyrrolidin-1-yl)-benzyl]-7H-pyrrolo[2,3-d]pyrimidine-2-carbonitrile], 35 nM. In the case of `CC(C)CCn1c(Cc2cccs2)cc2cnc(C#N)nc21` [Example 193] it was 4.1 nM; in that of `N#Cc1ncc2cc(CN3CCCC3)n(CCC3CCCCC3)c2n1` [Example 278], 33 nM. On to `CC(=O)N1CCC2(CCN(Cc3cc4cnc(C#N)nc4n3CCC3CCCCC3)CC2)C1` [Example 335, 6-(2-Acetyl-2,8-diaza-spiro[4,5]dec-8-ylmethyl)-7-(2-cyclohexyl-ethyl)-7H-pyrrolo[2,3-d]pyrimidine-2-carbonitrile], for which the IC50 came out at 48 nM.

By IC50 is commonly meant the concentration that gives 50% inhibition.
